This note sets out measurements from patent publication US20250270201A1, “SUBSTITUTED PYRIMIDINYL HYDRAZIDE COMPOUND AND PREPARATION METHOD AND USE THEREOF” (ARIGENX THERAPEUTICS CO., LTD., priority 2022, published 2025).

This assay deals with T1, AHR (Homo sapiens, UniProt P35869).
T1 construct: A human liver cancer cell line HepG2 endogenously expressing an AHR protein; host or cells: HepG2 stably transfected with a CYP1A1-promoter firefly luciferase reporter
T1 sequence (P35869 11-848): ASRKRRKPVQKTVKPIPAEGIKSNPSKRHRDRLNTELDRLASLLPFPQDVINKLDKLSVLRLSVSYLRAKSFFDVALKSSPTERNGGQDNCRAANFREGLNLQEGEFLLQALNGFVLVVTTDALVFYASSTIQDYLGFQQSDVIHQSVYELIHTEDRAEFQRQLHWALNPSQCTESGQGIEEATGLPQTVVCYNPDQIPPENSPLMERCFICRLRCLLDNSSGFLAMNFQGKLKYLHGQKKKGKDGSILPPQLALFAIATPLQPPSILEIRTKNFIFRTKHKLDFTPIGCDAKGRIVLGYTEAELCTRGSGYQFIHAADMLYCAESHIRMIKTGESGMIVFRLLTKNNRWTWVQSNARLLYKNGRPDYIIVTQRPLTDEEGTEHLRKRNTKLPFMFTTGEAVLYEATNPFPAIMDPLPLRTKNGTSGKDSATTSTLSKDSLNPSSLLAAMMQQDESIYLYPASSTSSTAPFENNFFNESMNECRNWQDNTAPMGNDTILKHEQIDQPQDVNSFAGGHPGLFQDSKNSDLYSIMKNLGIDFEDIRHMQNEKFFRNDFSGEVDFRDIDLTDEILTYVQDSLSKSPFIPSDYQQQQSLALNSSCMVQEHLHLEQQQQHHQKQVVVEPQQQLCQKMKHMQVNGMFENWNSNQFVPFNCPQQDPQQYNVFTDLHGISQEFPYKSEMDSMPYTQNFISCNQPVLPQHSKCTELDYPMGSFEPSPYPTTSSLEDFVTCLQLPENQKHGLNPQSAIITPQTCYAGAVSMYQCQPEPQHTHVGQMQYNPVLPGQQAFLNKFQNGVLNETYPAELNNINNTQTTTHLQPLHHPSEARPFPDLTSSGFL
Briefly: Antagonistic effect for AHR in HepG2 cells stably transfected with CYP1A1-promoter firefly luciferase reporter. In kind it is cell-based. The settings on record: AHR agonist-stimulated, 24 h compound treatment, average of two replicates. From the text: A human liver cancer cell line HepG2 endogenously expressing an AHR protein (provided by the Stem Cell Bank of the Chinese Academy of Sciences) was adopted for testing. The expression of a CYP1A1 gene is regulated by an activity of AHR. After being activated, AHR can bind to a sequence called XRE on a CYP1A1 enhancer and initiate the expression of the CYP1A1 gene. To quantitatively determine an impact of a compound on the activity of AHR, a 1,200 bp (−1,143 to +57) regulatory sequence upstream of a promoter of the CYP1A1 gene was synthesized through gene synthesis and then inserted into a plasmid vector carrying firefly luciferase. The plasmid was then linearized through single enzyme cleavage and then transfected into HepG2 cells through lipofectin transfection (Lipofectamine 3000), and transfected HepG2 cells were screened by puromycin to obtain a stably-expressed cell line. When an antagonistic effect of a compound for AHR was tested, the expression of firefly luciferase was initiated by an AHR agonist (such as L-kynurenine, kynurenic acid, indirubin, TCDD, and 2-(1H-indol-3-ylcarbonyl)-4-thiazolecarboxylic acid methyl ester (ITE)), and cells were treated with the compound at different concentrations. Then, the inhibition on the expression of luciferase by the compound was measured.
Stably-transfected HepG2 cells were sub-cultivated in Minimum Eagle's medium (MEM) at 37° C. and 5% carbon dioxide. In the MEM, 1 mM sodium pyruvate, 2 mM GlutaMax, 1×non- essential amino acids, 10% Australian fetal bovine serum, 100 U/mL penicillin-streptomycin, and 5 μg/mL puromycin were supplemented. Before testing, HepG2 cells were inoculated into a 96-well plate at a density of 5-8×10^4 cells/well and cultivated for 24 h to 48 h to allow a cell confluency of about 90% before a drug treatment (puromycin was not added in a medium). Before the drug treatment, AHR agonist-containing 2×compound solutions at different concentrations were prepared with a same medium, and then a half of a cell culture medium in the 96-well plate was replaced with a 2×compound solution. An AHR agonist solution including only DMSO at a corresponding concentration was set as a negative control group, and CH223191 at a corresponding concentration (commercially available) was set as a positive control group. 2 separate replicate tests were set for each compound (including a positive control and a negative control). 24 h after the compound treatment, HepG2 cells were lysed by a Steady-Glo luciferase detection system of Promega, and a luciferase signal was measured by an InfiniteM1000 Pro microplate reader of Tecan.
In terms of data processing, for each replicate test of each compound, inhibition percentages of a compound at different concentrations on an activity of AHR were calculated sequentially with a signal of a well at a compound concentration of 0 as 100% and a cell signal of an untreated agonist as 0. Corresponding IC50 of a compound was calculated with an average value of data of two replicates according to the formula
tirougn non-nnear ning, where y represents an inhibition percentage and x represents a concentration of a corresponding compound.
IC50 for each compound was shown in Table 2, where A indicates IC50≤500 nM, B indicates 500 nM<IC50≤1.0 μM, C indicates 1 μM<IC50≤5.0 μM, and D indicates IC50>5.0 μM.
(In general: Reporter assays use an easily measured gene product as a stand-in for the process of interest.)

On to `CC1COCC(=O)N1NC(=O)c1cc(-c2ccc(OC(F)(F)F)cc2)nc(-c2cccnc2)n1` (stereo not drawn) [Compound 11], for which the IC50 (as a rule, the midpoint of a concentration-inhibition curve) was no more than 500 nM. Consider `CC1(C)COCCN1NC(=O)c1cc(-c2ccc(C(F)(F)F)cc2)nc(-c2cccnc2)n1` [Compound 27], for which the IC50 is no more than 500 nM. Next, `CCN(NC(=O)c1cc(-c2ccc(C(F)(F)F)cc2)nc(-c2cccc(F)c2)n1)C(C)CO` (stereo not drawn) [Compound 52]: no more than 500 nM. `CC(C)N(NC(=O)c1cc(-c2ccc(O)cc2)nc(-c2cccnc2)n1)C(C)CO` (stereo not drawn) [Compound 51] returned an IC50 of 500 to 1000 nM. In turn, `CN(CCO)NC(=O)c1cc(-c2ccc(C(F)(F)F)cc2)nc(-c2cnn(C)c2)n1` [Compound 18] registered an IC50 of no more than 500 nM. Under `O=C(NN1CCOC[C@@H]1CO)c1cc(-c2ccc(C(F)(F)F)cc2)nc(-c2cccnc2)n1` [Compound 43] stands no more than 500 nM; under `CC1(C)COCC(=O)N1NC(=O)c1cc(-c2ccc(C(F)(F)F)cc2)nc(-c2cccnc2)n1` [Compound 30], no more than 500 nM.

For `Cc1ccc(-c2cc(C(=O)NN(C(C)C)C(C)CO)nc(-c3cccnc3)n2)s1` (stereo not drawn) [Compound 62], the IC50 fell in the range of 500 to 1000 nM. Turning to `O=C(NN1CCOC[C@H]1CO)c1cc(-c2ccc(Cl)cc2)nc(-c2cccnc2)n1` (stereo in doubt) [Compound 46], the IC50 was no more than 500 nM. Under `CCN(CCO)NC(=O)c1cc(-c2ccc(Cl)cc2)nc(-c2cccnc2)n1` [Compound 21] stands no more than 500 nM. With `CCN(NC(=O)c1cc(-c2ccc(Cl)cc2)nc(-c2cccc(C)c2)n1)C(C)CO` (stereo not drawn) [Compound 55], the IC50 was 500 to 1000 nM. Consider `C[C@H]1COCCN1NC(=O)c1cc(-c2ccc(OC(F)(F)F)cc2)nc(-c2cnn(C)c2)n1` [Compound 15], for which the IC50 is no more than 500 nM. In turn, `CC(C)N(NC(=O)c1cc(-c2ccc(C(F)(F)F)cc2)nc(-c2cccnc2)n1)C(C)CO` (stereo not drawn) [Compound 1, 6-(4-trifluoromethylenyl)-N-(1-hydroxypropyy1-2-yl)-N-isopropyl-2-(pyridin-3-yl)pyrimidin-4-hydrazide] yielded an IC50 of no more than 500 nM.

In turn, `C[C@H]1COCCN1NC(=O)c1cc(-c2ccc(OC(F)(F)F)cc2)nc(-c2cccnc2)n1` [Compound 6] came in with an IC50 of no more than 500 nM. For the molecule `CC(C)NNC(=O)c1cc(-c2ccc(C(F)(F)F)cc2)nc(-c2cccnc2)n1` [Compound 10], the 50% inhibitory concentration (IC50) is no more than 500 nM. In the case of `CC(C)N(NC(=O)c1cc(-c2ccc(Cl)cc2)nc(-c2cccnc2)n1)C(C)CO` (stereo not drawn) [Compound 2], the IC50 was no more than 500 nM. In turn, `COc1ccc(-c2cc(C(=O)NN(C(C)C)C(C)CO)nc(-c3cccnc3)n2)cc1` (stereo not drawn) [Compound 48] came in with a 50% inhibitory concentration (IC50) of 500 to 1000 nM. Under `Cc1ccc(-c2cc(C(=O)NN(C(C)C)C(C)CO)nc(-c3cccnc3)n2)cn1` (stereo not drawn) [Compound 50] stands 500 to 1000 nM.

With `Cn1cc(-c2nc(C(=O)NN3CCOC[C@H]3CO)cc(-c3ccc(Cl)cc3)n2)cn1` [Compound 36], the IC50 is no more than 500 nM.

Turning to `CCN(NC(=O)c1cc(-c2ccc(C(F)(F)F)cc2)nc(-c2cnsc2)n1)C(C)CO` (stereo not drawn) [Compound 57], the IC50 is no more than 500 nM. Molecule `Cn1cc(-c2nc(C(=O)NN3CCOC[C@@H]3CO)cc(-c3ccc(Cl)cc3)n2)cn1` [Compound 35] gave an IC50 of no more than 500 nM. Under `CC(C)N(NC(=O)c1cc(-c2cccc(F)c2)nc(-c2cccnc2)n1)C(C)CO` (stereo not drawn) [Compound 58] stands 500 to 1000 nM; under `CC(C)N(CCO)NC(=O)c1cc(-c2ccc(Cl)cc2)nc(-c2cccnc2)n1` [Compound 19], no more than 500 nM; under `C[C@H]1COCCN1NC(=O)c1cc(-c2ccc(C(F)(F)F)cc2)nc(-c2cnn(C)c2)n1` [Compound 39], no more than 500 nM. Next, `CCN(NC(=O)c1cc(-c2ccc(C(F)(F)F)cc2)nc(-c2cccc(C)c2)n1)C(C)CO` (stereo not drawn) [Compound 53]: 500 to 1000 nM; `CC(C)N(NC(=O)c1cc(-c2ccc(C(F)(F)F)nc2)nc(-c2cccnc2)n1)C(C)CO` (stereo not drawn) [Compound 60]: 500 to 1000 nM. With `CC1COCC(C)N1NC(=O)c1cc(-c2ccc(OC(F)(F)F)cc2)nc(-c2cccnc2)n1` (stereo not drawn) [Compound 3], the IC50 was no more than 500 nM.
